# System: SCD canine subjects (myocardial infarction, complete AV block, NGF to left stellate ganglion)
# Assay: Effect of BRL 37344 infusion in the canine sudden cardiac death (SCD) model
# Format: in vivo
# Excerpt: The canine SCD model is created by inducing myocardial hyperinnervation within the left stellate ganglion in combination with creating a complete atrioventricular (AV) block and inducing a relatively mild myocardial infarction (MI). The AV block is typically created by ablating the AV node of the heart using an ablation catheter and the MI is induced by ligating the left anterior descending portion of the coronary artery. Myocardial hyperinnervation is stimulated by application of nerve growth factor (NGF) or other neurtrophic vectors to the left stellate ganglion. Alternatively, electrical stimulation signals may be applied to the left stellate ganglion.
# Four canine groups were evaluated in this study. MI was created in each of the canine subjects by ligating the left anterior descending coronary artery. Complete AV block was created by radiofrequency ablation of the atrioventricular junction in the MI, SCD and RSG Groups. An ICD was used to monitor for the occurrence of ventricular arrhythmias. Nerve growth factor (NGF) was infused by an osmotic pump throughout a 4-5 week period in the left stellate ganglion (LSG) of the canine subjects in the SCD Group and in the right stellate ganglion (RSG) of the canine subjects in the RSG Group. The canine subjects in the SCD Group was characterized by a high incidence of SCD (44%), long QTc intervals and frequent episodes of ventricular tachycardia, whereas the RSG Group had no SCD, short QTc intervals and few episodes of VT.
# Two canine groups were studied and compared to ascertain the effect of a β3 adrenergic receptor agonist (BRL 37344) on the incidence of phase-2 VT, typically leading to sudden cardiac death. Table 4 compares the incidence of phase-2 VT, QTc intervals and the size of myocardial infarction (“MI”) of SCD canine subjects and SCD canine subjects receiving BRL 37344 infusion.
# β3 adrenergic receptor agonist BRL 37344 was infused subcutaneously by an osmotic pump (2 μg/kg/hr) for two weeks in two canine subjects with myocardial infarction, complete atrioventricular block and nerve growth factor to the left stellate ganglion (BRL Group). Surface ECG was continuously recorded by Data Sciences International (DSI) and analyzed manually.
smiles,measurement,setting,value
C[C@H](Cc1ccc(OCC(=O)O)cc1)NC[C@H](O)c1cccc(Cl)c1 [BRL 37344],Effect on incidence of ventricular arrhythmias,"2 μg/kg/hr by osmotic pump for a two week period, mammalian SCD models",effective in significantly reducing the incidence of ventricular arrhythmias
same,Incidence of Phase-2 VT,"SCD canine subjects, BRL 37344 2 μg/kg/hr subcutaneous by osmotic pump for two weeks, n=2, SCD Group without infusion 2.0 ± 2.0 per day",0.08±0.11 per day
same,QTc Interval,"SCD canine subjects, BRL 37344 2 μg/kg/hr subcutaneous infusion, throughout follow-up, SCD Group without infusion 400 ms",350 ms
same,Size of MI,"SCD canine subjects, BRL 37344 2 μg/kg/hr subcutaneous infusion, SCD Group without infusion 17 ± 4%",16±1.2%
same,"Phase-2 VT episodes, first canine subject of the BRL Group",short runs of VT episodes observed from day 36 to day 44 after surgery,no phase-2 VT for five weeks
same,Occurrence of sudden cardiac death during follow-up,"two canine subjects of the BRL Group, followed up for two months",without SCD
same,"Phase-2 VT episodes, second canine subject of the BRL Group",two months follow-up,no phase-2 VT episodes
